# Legend:
# Format in all cases: cell-based
# [1] = system: Pseudomonas aeruginosa (Pae, PAWT, ATCC #27853); test: MIC against Pseudomonas aeruginosa reference strain PAWT; conditions: Pseudomonas aeruginosa wild type PAWT
# Source text: (§1) For evaluation of efficacy, we assembled panels of representative gram-negative pathogens, including Pseudomonas aeruginosa (Pae, PAWT, ATCC #27853), Klebsiella pneumoniae (Kpn, KPWT, ATCC #700603), Acinetobacter baumannii (Aba, ABWT, ATCC #BAA-747) and Escherichia coli (Eco, ECWT, ATCC #25922). These reference strains are useful indicator organisms to characterize compound activity against bacteria from a pathogenic genus in the absence of multiple resistance mechanisms. Two strains (PAWT and ECWT) are reference strains cited within the Clinical and Laboratory Standards Institute (CLSI) Standards for susceptibility testing by Minimum Inhibitory Concentration (MIC) (SXPS2) and are well suited for quality control. ABWT and ECWT are widely susceptible to aminoglycoside antibiotics, whereas PAWT and KPWT harbor a single aminoglycoside-modifying enzyme (AGME) that targets 4,6-substituted-2-deoxystreptamine AGs. […]
# [2] = system: Klebsiella pneumoniae (Kpn, KPWT, ATCC #700603); test: MIC against Klebsiella pneumoniae reference strain KPWT; conditions: Klebsiella pneumonia KPWT, Table 5 (unit not given); in µg/mL
# Source text: as §1, with “These reference strains are useful indicator organisms to characterize compound activity against bacteria from a pathogenic genus in the absence of multiple resistance mechanisms.” left out
# [3] = system: Pseudomonas aeruginosa PR1 (clinical isolate with intermediate aminoglycoside resistance); test: MIC against Pseudomonas aeruginosa clinical isolate PR1; conditions: Pseudomonas aeruginosa resistant strain PR1
# Source text: (§2) Pseudomonas aeruginosa is a prominent nosocomial pathogen. In addition to intrinsic antibiotic resistance to several antibiotics, Pseudomonas has acquired multiple additional mechanisms of resistance. As a result, therapeutic options for the treatment of infections caused by Pseudomonas aeruginosa are limited. We acquired clinical isolates of Pseudomonas aeruginosa (Micromyx LLC, Kalamazoo, Mich.), and used this panel to test compounds for Pseudomonicidal activity. […] For each strain and antibiotic, the mechanism(s) of resistance was inferred from the resistance profile. The presence of specific AGMEs was confirmed by colony PCR.
# [4] = system: Pseudomonas aeruginosa PR2 (clinical isolate with intermediate aminoglycoside resistance); test: MIC against Pseudomonas aeruginosa clinical isolate PR2; conditions: Pseudomonas aeruginosa resistant strain PR2
# Source text: as §2
# [5] = system: Pseudomonas aeruginosa PR3 (high-level, efflux-mediated, pan-aminoglycoside resistance); test: MIC against Pseudomonas aeruginosa clinical isolate PR3; conditions: Pseudomonas aeruginosa resistant strain PR3
# Source text: as §2
# [6] = system: Klebsiella pneumoniae KR1 (clinical isolate with intermediate aminoglycoside resistance); test: MIC against Klebsiella pneumoniae clinical isolate KR1; conditions: Klebsiella pneumonia KR1; in µg/mL
# Source text: (§3) Klebsiella pneumoniae (Kpn) and Escherichia coli (Eco) are gram-negative (like Pae), enteric pathogens with increasing clinical relevance. Many clinical isolates of Kpn and Eco harbor extended-spectrum beta-lactamases and are no longer sensitive to most beta-lactam antibiotics. We acquired clinical isolates of Klebsiella pneumoniae and Escherichia coli (Micromyx LLC, Kalamazoo, Mich.) and used this panel to test compounds for anti-enteric activity.
# [7] = system: Klebsiella pneumoniae KR2 (clinical isolate with intermediate aminoglycoside resistance); test: MIC against Klebsiella pneumoniae clinical isolate KR2; conditions: Klebsiella pneumonia KR2
# Source text: as §3
# [8] = system: Klebsiella pneumoniae KR3 (clinical isolate possessing high-level aminoglycoside resistance); test: MIC against Klebsiella pneumoniae clinical isolate KR3; conditions: Klebsiella pneumonia KR3; in µg/mL
# Source text: as §3
# [9] = system: Acinetobacter baumannii (Aba, ABWT, ATCC #BAA-747); test: MIC against Acinetobacter baumannii reference strain ABWT
# Source text: as §1
# [10] = system: more than fifty resistant contemporary clinical isolates of Pseudomonas aeruginosa; test: MIC90 against panel of resistant clinical isolates of Pseudomonas aeruginosa
# Source text: To assess this, a panel of more than fifty resistant contemporary clinical isolates of Pseudomonas aeruginosa were obtained from multiple sources including JMI Laboratories (North Liberty, Iowa), Pfizer (Groton, Conn.), Micromyx (Kalamazoo, Mich.), Dr. J. Chow (Wayne State University). Strains were characterized for resistance to a wide variety of classes of antibiotics including aminoglycosides, β-lactams and fluoroquinolones. […] This reflects the difficulty in treating clinical Pseudomonas aeruginosa infections. […] Using this stringent panel, we tested a subset of compounds of the invention (Table 4).
# [11] = system: fifty resistant contemporary clinical isolates of Klebsiella pneumoniae; test: MIC90 against panel of resistant clinical isolates of Klebsiella pneumoniae; conditions: stringent panel of resistant clinical isolates, Table 5
# Source text: Using this stringent Klebsiella pneumoniae panel, we tested a subset of compounds of the invention.
# panel of E. coli strains = test: MIC90 against a panel of E. coli strains; conditions: in µg/mL
# [12] = system: Acinetobacter baumannii AB1; test: MIC against Acinetobacter baumannii clinical isolate AB1
# Source text: (§4) Acinetobacter baumannii is another clinically important and very challenging gram negative pathogen. Members of the Acinetobacter genus, including baumannii, have a remarkable ability to upregulate and acquire resistance determinants. Coupled with its ability to survive for prolonged periods in a hospital environment, A. baumannii is an emerging threat for healthcare institutions globally. We acquired clinical isolates of Acinetobacter baumannii and used this panel to test compounds for anti-Acinetobacter activity. We first tested reference AGs against our panel of Aba strains.
# [13] = system: Acinetobacter baumannii AB2; test: MIC against Acinetobacter baumannii clinical isolate AB2
# Source text: as §4
# [14] = system: Acinetobacter baumannii AB3; test: MIC against Acinetobacter baumannii clinical isolate AB3
# Source text: as §4
# [15] = system: fifty resistant contemporary clinical isolates of Acinetobacter baumannii; test: MIC90 against panel of resistant clinical isolates of Acinetobacter baumannii
# Source text: As in the case of Pseudomonas aeruginosa and Klebsiella pneumoniae, we considered whether the SAR observed against select Acinetobacter baumannii strains 1, 2 or 3 was indicative of general potency. […] Using this stringent Acinetobacter baumannii panel, we tested a subset of compounds of the invention.
smiles,measurement,setting,value
NCC[C@H](O)C(=O)N[C@@H]1C[C@H](N)[C@@H](O[C@H]2O[C@H](CN)[C@@H](O)[C@H](O)[C@H]2O)[C@@H](F)[C@H]1O[C@H]1O[C@H](CNC2CC2)[C@@H](O)[C@H](N)[C@H]1O [SXP1212-56″-16],MIC PAWT,[1],1 mg/L
same,MIC KPWT,[2],<0.25
same,MIC PR1,[3],2 to 8 mg/L
same,MIC PR2,[4],<0.25 to 4 mg/L
same,MIC PR3,[5],32 mg/L
same,MIC KR1,[6],0.5-1
same,MIC KR2,[7],1
same,MIC KR3,[8],16
NCCC(O)C(=O)NC1CC(N)C(OC2OC(CN)C(O)CC2N)C(F)C1OC1OC(CNCC(O)CN)C(O)C(N)C1O (stereo not drawn) [SXP 2524],MIC PAWT,[1],0.25 mg/L
same,MIC KPWT,[2],0.5
same,MIC ABWT,[9],0.5 mg/L
same,MIC PR1,[3],4 mg/L
same,MIC PR2,[4],0.5 mg/L
same,MIC PR3,[5],8 mg/L
same,MIC90 Pseudomonas aeruginosa,[10],4 mg/L
same,MIC KR1,[6],0.5-1
same,MIC KR2,[7],0.5
same,MIC KR3,[8],0.5-1
same,MIC90 Klebsiella pneumonia,[11],1 mg/L
same,MIC90 E. coli,panel of E. coli strains,2-4
same,MIC AB1,[12],2 mg/L
same,MIC AB2,[13],1 mg/L
same,MIC AB3,[14],8 mg/L
same,MIC90 Acinetobacter baumannii,[15],2 mg/L
